{
  "source": "patent US20120208204A1",
  "about": "“Compositions and Methods for Inhibiting Tumor Growth” (The Brigham and Women's Hospital, Inc., priority 2009, published 2012)",
  "data": [
    {"system": "SGK2", "assay": "Inhibition of kinase activity by SGK2 inhibitory compounds, single concentration", "format": "biochemical", "details": "10 μM compound", "source_text": "A library of compounds was screened for inhibitors of SGK2 and PAK3 activity by assaying phosphorylation of a generic peptide substrate either directly; or indirectly by inhibiting upstream kinase PDK1 from activating the enzyme in vitro. In both cases, the phosphorylated substrate was detected using a specific anti-phospho peptide antibody that is coupled with Eu^3+ Cryptate and XL665 conjugated with streptavidin. […] All initial hits were re-assayed as a dose response series with eight 3-fold dilutions and resulting final concentrations ranged from 0.9 nM to 20 μM.", "units": {"% Inhibition at 10 μM": "%"}, "values": [
      {"smiles": "Oc1cc(O)c2c(c1)O[C@@]1(c3ccc(O)c(O)c3)Oc3cc(O)c4c(c3[C@@H]2[C@H]1O)O[C@H](c1ccc(O)c(O)c1)[C@H](O)[C@H]4c1c(O)cc(O)c2c1O[C@H](c1ccc(O)c(O)c1)[C@H](O)C2", "note": "[LDN-0022358]", "% Inhibition at 10 μM": 93},
      {"smiles": "O=C(OC1Cc2c(O)cc(O)cc2OC1c1cc(O)c(O)c(O)c1)c1cc(O)c(O)c(O)c1", "note": "(stereo not shown) [LDN-0022369]", "% Inhibition at 10 μM": 92},
      {"smiles": "CC1=C(C(=O)OCc2ccc3c(c2)OCO3)C(c2cccc(Oc3ccccc3)c2)NC(=O)N1", "note": "(stereo not shown) [LDN-0025562]", "% Inhibition at 10 μM": 60},
      {"smiles": "O=[N+]([O-])c1c(Cl)cc(O)c2c1C1C=CCC1C(c1ccccc1)N2", "note": "(stereo not shown) [LDN-0026088]", "% Inhibition at 10 μM": 70},
      {"smiles": "N#Cc1c(N)nc(SCC(=O)c2ccc(O)c(O)c2)c(C#N)c1-c1ccc(O)cc1", "note": "[LDN-0028574]", "% Inhibition at 10 μM": 91},
      {"smiles": "CCOC(=O)C1C(=O)NC(SCC(=O)Nc2ccc(Br)cc2)=C(C#N)C1c1ccccc1OCC", "note": "(stereo not shown) [LDN-0028584]", "% Inhibition at 10 μM": 68},
      {"smiles": "N#Cc1c(N)nc(SCC(=O)Nc2ccc([N+](=O)[O-])c3ccccc23)c(C#N)c1-c1ccco1", "note": "[LDN-0028673]", "% Inhibition at 10 μM": 71},
      {"smiles": "O=C(CSc1nnc(-c2ccco2)[nH]1)c1ccc(O)c(O)c1", "note": "[LDN-0031187]", "% Inhibition at 10 μM": 67},
      {"smiles": "O=C(CSc1nnc(-c2ccncc2)[nH]1)c1ccc(O)c(O)c1", "note": "[LDN-0031199]", "% Inhibition at 10 μM": 68},
      {"smiles": "CC(=O)Oc1ccc(C2Nc3c(C(=O)O)ccc([N+](=O)[O-])c3C3C=CCC32)cc1", "note": "(stereo not shown) [LDN-0033447]", "% Inhibition at 10 μM": 65},
      {"smiles": "O=C(C=Cc1ccco1)c1ccc2c(c1)C1C=CCC1C(c1ccc(Cl)cc1)N2", "note": "(stereo not shown) [LDN-0033450]", "% Inhibition at 10 μM": 94},
      {"smiles": "NS(=O)(=O)c1ccc(CCNC(=O)c2ccc3c(=O)n(Cc4ccco4)c(=S)[nH]c3c2)cc1", "note": "[LDN-0036137]", "% Inhibition at 10 μM": 74},
      {"smiles": "O=C(NCCCN1CCCCCC1)c1ccc(Cn2c(=S)[nH]c3ccc(Br)cc3c2=O)cc1", "note": "[LDN-0036382]", "% Inhibition at 10 μM": 67},
      {"smiles": "O=C(Nc1ccc(O)c(-c2nc3ccccc3s2)c1)c1cccc(N2C(=O)CCC2=O)c1", "note": "[LDN-0041592]", "% Inhibition at 10 μM": 74},
      {"smiles": "Cc1cc2c3c(c(Br)cc(S(=O)(=O)O)c3n1)C(=O)c1ccccc1-2", "note": "[LDN-0042012]", "% Inhibition at 10 μM": 87},
      {"smiles": "O=C(O)c1cc2c3c(c1)C1C=CCC1CN3CC1CC=CC21", "note": "(stereo not shown) [LDN-0043107]", "% Inhibition at 10 μM": 73},
      {"smiles": "CSc1ccc(-c2nc(-c3ccc(Sc4ccccc4)cc3)c(-c3ccccc3)[nH]2)cc1", "note": "[LDN-0044047]", "% Inhibition at 10 μM": 65},
      {"smiles": "Oc1ccc(-c2nc(-c3ccc4sc5ccccc5c4c3)c(-c3ccccc3)[nH]2)cc1", "note": "[LDN-0044883]", "% Inhibition at 10 μM": 64},
      {"smiles": "Oc1ccc(-c2nc(-c3ccc4sc5ccccc5c4c3)c(-c3ccccc3)[nH]2)cc1O", "note": "[LDN-0044885]", "% Inhibition at 10 μM": 70},
      {"smiles": "COc1cccc(C2Nc3cccc4cccc(c34)N2)c1OC", "note": "[LDN-0045022]", "% Inhibition at 10 μM": 73},
      {"smiles": "Oc1cccc(C2Nc3cccc4cccc(c34)N2)c1", "note": "[LDN-0045024]", "% Inhibition at 10 μM": 90},
      {"smiles": "CCN(CC)c1ccc(C2Nc3cccc4cccc(c34)N2)c(O)c1", "note": "[LDN-0045032]", "% Inhibition at 10 μM": 68},
      {"smiles": "Oc1ccccc1C1Nc2cccc3cccc(c23)N1", "note": "[LDN-0045035]", "% Inhibition at 10 μM": 89},
      {"smiles": "Oc1ccc(C2Nc3cccc4cccc(c34)N2)c(O)c1", "note": "[LDN-0045038]", "% Inhibition at 10 μM": 91},
      {"smiles": "C=CCc1cccc(C2Nc3cccc4cccc(c34)N2)c1O", "note": "[LDN-0045040]", "% Inhibition at 10 μM": 89},
      {"smiles": "CN(C)c1ccc(C2=Nc3cccc4cccc(c34)N2)cc1", "note": "[LDN-0047445]", "% Inhibition at 10 μM": 79},
      {"smiles": "N#CC1=C(NC(=O)Cc2ccccc2)c2ccccc2CC12CCCCC2", "note": "[LDN-0047862]", "% Inhibition at 10 μM": 95},
      {"smiles": "c1ccc(Sc2ccc(-c3nc(-c4ccccc4)[nH]c3-c3ccccc3)cc2)cc1", "note": "[LDN-0048956]", "% Inhibition at 10 μM": 68},
      {"smiles": "C1=CC2c3cccc4c3N(CC2C1)CC1CC=CC41", "note": "(stereo not shown) [LDN-0050317]", "% Inhibition at 10 μM": 69},
      {"smiles": "O=c1c(O)c(-c2ccc(O)c(O)c2)oc2cc(O)cc(O)c12", "note": "[LDN-0052529]", "% Inhibition at 10 μM": 89},
      {"smiles": "O=c1c(O)c(-c2ccc(O)c(O)c2)oc2cc(O)ccc12", "note": "[LDN-0058389]", "% Inhibition at 10 μM": 76}
    ]}
  ]
}
